Assay results as given in patent publication US20230059124A1, “Novel TAS2R38 Bitter Taste Receptor Agonist” (priority 2021, published 2023).

Tests used:
[1] = system: TAS2R38 gene; assay: qPCR TAS2R38 gene expression in hTBEC 1 culture; format: cell-based, human; conditions: for Tas2R38 3prime 2^-ddct / Tas2R38 5prime 2^-ddct / Tas2R38C DS 2^-ddct / Tas2R38 3prime ddCT / Tas2R38 5prime ddCT / Tas2R38C DS ddCT: 1 μM; for Tas2R38 3prime 2^-ddct / Tas2R38 5prime 2^-ddct / Tas2R38C DS 2^-ddct: control = 1.000
Excerpt: (§1) Currently, very little is known about compounds that directly agonize and regulate TAS2R38 expression. Because of this, research related to the prenylflavonoid xanthohumol's effects on gene expression was compared with other TAS2R38 targeting compounds, namely sinigrin, a glucosinolate connected to the family of glucosides found in the Brassicaceae vegetable family and found in foods such as brussels sprouts and broccoli. […] selectively triggers the taster variant of the TAS2R38 receptor (Meyerhof, W. et al. The Molecular Receptive Ranges of Human TAS2R Bitter Taste Receptors. Chem Sense (2010) 35: 157-70.) […] was used as a comparator at a concentration of 1 the same concentration as xanthohumol (1 μM). Two hTBEC cultures were selected for this initial study. hTBEC 1 is derived from one of the most bitter-responsive cultures, which has a moderate/moderately low basal gene expression level of TAS2R38. hTBEC 2 is derived from a culture that responds to bitter stimuli, but has a high response in particular to TAS2R38 expression compared with other hTBEC repositories. RNA was harvested from cultures treated cultures and control cultures at 1 μM lead compound at 24 and 48 hours post treatment. Following is a table that explains the experimental paradigm in full: [table] In an effort to establishing a comprehensive understanding of xanthohumol's effects on gene expression, 3 unique primer pairs to accurately capture the TAS2R38 gene were developed as cultures. […] The published NCBI genetic sequence for the region of chromosome 7q that encodes TAS2R38 and overlay map the SNP variant markers to ensure the primers cover strategic regions of the TAS2R38 gene. For probing TAS2R38, 3 individual primer pairs were used for a comprehensive view of how the compound may be “hitting” the gene.

[2] = system: TAS2R38 gene; assay: qPCR TAS2R38 gene expression in hTBEC 2 culture; format: cell-based, human; conditions: 1 μM; for Tas2R38 3prime 2^-ddct / Tas2R38 5prime 2^-ddct / Tas2R38C DS 2^-ddct: control = 1.000
Excerpt: as §1

[3] = system: TAS2R38 gene; assay: DNA microarray gene expression, MatTek full thickness tissue (EFT-200); format: cell-based, Homo sapiens; conditions: 0.05 ml solubilized xanthohumol liquid formulation 5 mg/ml, 48 hours; ratio >=1.3 = up-regulated
Excerpt: The testing model used in this study is the MatTek full thickness tissue (EFT-200). This skin model consists of normal human-derived epidermal keratinocytes that have been cultured to form a multilayered, highly differentiated model of the human epidermis and human fibroblasts that have been seeded into a collagen matrix to form the dermis. This model also introduces a well-defined basement membrane between the epidermal and dermal layers, which is essential to enable in vivo like interactions between the keratinocytes and the fibroblasts.
Upon arrival, the MatTek ET-200 tissue was stored at 4° C. until used (they can be stored for up to 72 hours however tissue viability may decrease with prolonged storage). Prior to use, the tissues to be used were removed from the agarose-shipping tray and placed into a 6-well plate containing 2.0 ml of assay medium (37±2° C.). All of the agarose must be removed from the outside of the tissue culture insert since any residual agarose may prevent the assay medium from reaching the tissue. […]
At the end of the incubation any residual test material was removed from the tissues by rinsing them twice with at least 100 μl of PBS. […] These broader ranges are a more conservative judging criterion and account for possible sources of variation in fluorescence intensity that are not associated with the treatment. […]

[4] = hTBEC 1, 24 hour, vs control 24
[5] = hTBEC 1, 48 hour, vs control 48 hour
[6] = hTBEC 2, 24 hour, vs control 24
[7] = hTBEC 2, 48 hour, vs control 48 hour

`C=CCC(=NOS(=O)(=O)O)S[C@@H]1O[C@H](CO)[C@@H](O)[C@H](O)[C@H]1O` (stereo in doubt) [sinigrin, reference compound] was tested, and the “Tas2R38 3prime 2^-ddct” value ([1]; hTBEC 1, 24 hour) was 0.988, the “Tas2R38 5prime 2^-ddct” value ([1]; hTBEC 1, 24 hour) was 1.142 and the “Tas2R38C DS 2^-ddct” value ([1]; hTBEC 1, 24 hour) was 1.023. The “Tas2R38 3prime ddCT” value [1, 4] was 0.017, the “Tas2R38 5prime ddCT” value [1, 4] was −0.192 and the “Tas2R38C DS ddCT” value [1, 4] was −0.033. For the same compound, the “Tas2R38 3prime 2^-ddct” value ([1]; hTBEC 1, 48 hour) was 0.983, the “Tas2R38 5prime 2^-ddct” value ([1]; hTBEC 1, 48 hour) was 1.027 and the “Tas2R38C DS 2^-ddct” value ([1]; hTBEC 1, 48 hour) was 1.716. The “Tas2R38 3prime ddCT” value [1, 5] was 0.025, the “Tas2R38 5prime ddCT” value [1, 5] was −0.038 and the “Tas2R38C DS ddCT” value [1, 5] was −0.779. The “Tas2R38 3prime 2^-ddct” value ([2]; hTBEC 2, 24 hour) was 0.600, the “Tas2R38 5prime 2^-ddct” value ([2]; hTBEC 2, 24 hour) was 0.553 and the “Tas2R38C DS 2^-ddct” value ([2]; hTBEC 2, 24 hour) was 0.657. The “Tas2R38 3prime ddCT” value [2, 6] was 0.736, the “Tas2R38 5prime ddCT” value [2, 6] was 0.616 and the “Tas2R38C DS ddCT” value [2, 6] was 0.605. The “Tas2R38 3prime 2^-ddct” value ([2]; hTBEC 2, 48 hour) was 1.436, the “Tas2R38 5prime 2^-ddct” value ([2]; hTBEC 2, 48 hour) was 1.317 and the “Tas2R38C DS 2^-ddct” value ([2]; hTBEC 2, 48 hour) was 0.625. The “Tas2R38 3prime ddCT” value [2, 7] was −0.524, the “Tas2R38 5prime ddCT” value [2, 7] was −0.397 and the “Tas2R38C DS ddCT” value [2, 7] was 0.677.

`COc1cc(O)c(CC=C(C)C)c(O)c1C(=O)/C=C/c1ccc(O)cc1` [xanthohumol] was tested, and the “Ratio of Medians, TAS2R38 (NM_176817) up-regulation” value [3] was 21, the “up regulation of the TAS2R38 gene, higher than baseline or the Sinigrin control” value ([1]; FIG. 1, 1 μM, within 24 hours, culture not stated) was “approximately 4 ×” and the “Tas2R38 3prime 2^-ddct” value ([1]; hTBEC 1, 24 hour) was 2.024. For the same compound, the “Tas2R38 5prime 2^-ddct” value ([1]; hTBEC 1, 24 hour) was 3.983, the “Tas2R38C DS 2^-ddct” value ([1]; hTBEC 1, 24 hour) was 2.785 and the “Tas2R38 3prime ddCT” value [1, 4] was −1.017. For the same compound, the “Tas2R38 5prime ddCT” value [1, 4] was −1.994, the “Tas2R38C DS ddCT” value [1, 4] was −1.478 and the “Tas2R38 3prime 2^-ddct” value ([1]; hTBEC 1, 48 hour) was 0.664. For the same compound, the “Tas2R38 5prime 2^-ddct” value ([1]; hTBEC 1, 48 hour) was 1.368, the “Tas2R38C DS 2^-ddct” value ([1]; hTBEC 1, 48 hour) was 4.109 and the “Tas2R38 3prime ddCT” value [1, 5] was 0.591. The “Tas2R38 5prime ddCT” value [1, 5] was −0.452, the “Tas2R38C DS ddCT” value [1, 5] was −2.039 and the “Tas2R38 3prime 2^-ddct” value ([2]; hTBEC 2, 24 hour) was 2.013. For the same compound, the “Tas2R38 5prime 2^-ddct” value ([2]; hTBEC 2, 24 hour) was 2.609, the “Tas2R38C DS 2^-ddct” value ([2]; hTBEC 2, 24 hour) was 1.779 and the “Tas2R38 3prime ddCT” value [2, 6] was −1.009. The “Tas2R38 5prime ddCT” value [2, 6] was −1.383, the “Tas2R38C DS ddCT” value [2, 6] was −0.831 and the “Tas2R38 3prime 2^-ddct” value ([2]; hTBEC 2, 48 hour) was 0.995. The “Tas2R38 5prime 2^-ddct” value ([2]; hTBEC 2, 48 hour) was 0.624, the “Tas2R38C DS 2^-ddct” value ([2]; hTBEC 2, 48 hour) was 4.175 and the “Tas2R38 3prime ddCT” value [2, 7] was 0.007. The “Tas2R38 5prime ddCT” value [2, 7] was 0.679 and the “Tas2R38C DS ddCT” value [2, 7] was −2.062.
